Assay results from ChEMBL document CHEMBL1135101, “Combinatorial synthesis of 3-(amidoalkyl) and 3-(aminoalkyl)-2-arylindole derivatives: discovery of potent ligands for a variety of G-protein coupled receptors” (Bioorg Med Chem Lett, 2002).
One block for each molecule: values may come before it.

Columns and labels:
[1] = biological target: T1, Neuropeptide Y receptor type 1 (Homo sapiens) (UniProt P25929); experiment: Binding affinity towards NPY1 receptor
T1 sequence (whole entry): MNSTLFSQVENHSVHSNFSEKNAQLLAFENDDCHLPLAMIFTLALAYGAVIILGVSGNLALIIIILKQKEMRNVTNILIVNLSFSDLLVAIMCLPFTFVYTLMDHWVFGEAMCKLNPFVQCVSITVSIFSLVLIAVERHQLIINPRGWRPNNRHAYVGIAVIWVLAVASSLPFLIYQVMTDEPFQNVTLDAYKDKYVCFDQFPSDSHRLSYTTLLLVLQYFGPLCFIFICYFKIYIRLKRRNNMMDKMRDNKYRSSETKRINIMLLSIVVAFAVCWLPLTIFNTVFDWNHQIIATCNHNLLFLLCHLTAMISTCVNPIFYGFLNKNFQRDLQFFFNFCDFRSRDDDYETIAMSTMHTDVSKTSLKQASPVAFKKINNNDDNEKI

[2] = biological target: T2, Neuropeptide Y receptor type 5 (Homo sapiens) (UniProt Q15761); experiment: Binding affinity towards NPY5 receptor
T2 sequence (whole entry): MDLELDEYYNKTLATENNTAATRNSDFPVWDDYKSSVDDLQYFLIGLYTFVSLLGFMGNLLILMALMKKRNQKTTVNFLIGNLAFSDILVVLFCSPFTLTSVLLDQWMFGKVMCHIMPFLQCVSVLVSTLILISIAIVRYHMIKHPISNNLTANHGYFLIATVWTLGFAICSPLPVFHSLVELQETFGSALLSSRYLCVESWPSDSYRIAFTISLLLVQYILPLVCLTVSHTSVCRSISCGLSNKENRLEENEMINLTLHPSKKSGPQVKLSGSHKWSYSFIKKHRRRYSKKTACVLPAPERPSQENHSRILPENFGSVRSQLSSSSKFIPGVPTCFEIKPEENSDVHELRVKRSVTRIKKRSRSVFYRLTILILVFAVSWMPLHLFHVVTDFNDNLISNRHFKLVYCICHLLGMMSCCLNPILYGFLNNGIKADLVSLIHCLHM

[3] = biological target: Melanocortin receptor 4 (Homo sapiens) (UniProt P32245); experiment: Binding affinity towards MCR-4 receptor
Sequence of Melanocortin receptor 4 (Homo sapiens) (P32245 whole entry): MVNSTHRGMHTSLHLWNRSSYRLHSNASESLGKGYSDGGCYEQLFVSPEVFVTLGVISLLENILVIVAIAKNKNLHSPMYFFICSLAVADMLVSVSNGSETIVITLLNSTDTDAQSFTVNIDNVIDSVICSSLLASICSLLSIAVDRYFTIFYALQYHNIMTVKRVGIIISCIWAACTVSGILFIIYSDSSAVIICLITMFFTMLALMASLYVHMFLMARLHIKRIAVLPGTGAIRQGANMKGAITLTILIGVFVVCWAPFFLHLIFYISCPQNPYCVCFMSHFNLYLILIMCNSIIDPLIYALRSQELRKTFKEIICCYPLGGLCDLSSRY

[4] = biological target: Substance-P receptor (Homo sapiens) (UniProt P25103); experiment: Binding affinity towards human NK1 receptor
Sequence of Substance-P receptor (Homo sapiens) (P25103 whole entry): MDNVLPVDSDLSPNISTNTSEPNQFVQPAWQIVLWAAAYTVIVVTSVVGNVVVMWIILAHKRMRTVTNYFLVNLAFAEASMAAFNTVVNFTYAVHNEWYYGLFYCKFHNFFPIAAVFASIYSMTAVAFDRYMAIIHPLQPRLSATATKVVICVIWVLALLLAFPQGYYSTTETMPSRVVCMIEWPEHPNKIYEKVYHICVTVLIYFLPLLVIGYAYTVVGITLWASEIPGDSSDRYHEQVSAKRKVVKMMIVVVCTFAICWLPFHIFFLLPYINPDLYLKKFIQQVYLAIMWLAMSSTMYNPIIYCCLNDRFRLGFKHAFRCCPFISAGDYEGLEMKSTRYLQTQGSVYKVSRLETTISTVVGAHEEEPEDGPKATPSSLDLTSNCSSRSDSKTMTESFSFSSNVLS

[5] = biological target: T3, Neuromedin-K receptor (Homo sapiens) (UniProt P29371); experiment: Binding affinity towards NK3 receptor
T3 sequence (whole entry): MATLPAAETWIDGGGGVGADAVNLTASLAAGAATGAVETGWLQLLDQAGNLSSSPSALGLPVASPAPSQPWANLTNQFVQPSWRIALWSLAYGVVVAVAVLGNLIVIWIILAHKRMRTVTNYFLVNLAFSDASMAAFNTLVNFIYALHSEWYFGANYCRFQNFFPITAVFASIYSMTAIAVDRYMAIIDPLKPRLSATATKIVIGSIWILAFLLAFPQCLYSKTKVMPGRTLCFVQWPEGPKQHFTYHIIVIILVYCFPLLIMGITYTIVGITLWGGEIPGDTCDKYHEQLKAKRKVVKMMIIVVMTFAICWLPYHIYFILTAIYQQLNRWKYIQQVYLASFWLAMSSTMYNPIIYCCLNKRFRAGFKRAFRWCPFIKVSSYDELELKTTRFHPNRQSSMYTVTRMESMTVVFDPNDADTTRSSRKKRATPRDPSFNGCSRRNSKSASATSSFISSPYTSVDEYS

[6] = biological target: T4, Substance-K receptor (Homo sapiens) (UniProt P21452); experiment: Binding affinity towards NK2 receptor
T4 sequence (whole entry): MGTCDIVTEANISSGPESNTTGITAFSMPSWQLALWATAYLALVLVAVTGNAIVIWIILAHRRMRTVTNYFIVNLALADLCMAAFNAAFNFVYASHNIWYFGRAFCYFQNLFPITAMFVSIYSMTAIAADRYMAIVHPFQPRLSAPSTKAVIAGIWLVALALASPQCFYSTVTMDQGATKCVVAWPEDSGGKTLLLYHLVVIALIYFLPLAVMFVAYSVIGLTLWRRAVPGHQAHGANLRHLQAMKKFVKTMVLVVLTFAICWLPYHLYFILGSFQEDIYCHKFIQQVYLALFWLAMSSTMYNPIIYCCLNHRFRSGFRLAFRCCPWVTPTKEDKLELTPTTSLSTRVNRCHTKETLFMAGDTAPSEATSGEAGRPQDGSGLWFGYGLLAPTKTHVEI

[7] = biological target: T5, 5-hydroxytryptamine receptor 1A (Homo sapiens) (UniProt P08908); experiment: Binding affinity towards 5-hydroxytryptamine 1A receptor
T5 sequence (whole entry): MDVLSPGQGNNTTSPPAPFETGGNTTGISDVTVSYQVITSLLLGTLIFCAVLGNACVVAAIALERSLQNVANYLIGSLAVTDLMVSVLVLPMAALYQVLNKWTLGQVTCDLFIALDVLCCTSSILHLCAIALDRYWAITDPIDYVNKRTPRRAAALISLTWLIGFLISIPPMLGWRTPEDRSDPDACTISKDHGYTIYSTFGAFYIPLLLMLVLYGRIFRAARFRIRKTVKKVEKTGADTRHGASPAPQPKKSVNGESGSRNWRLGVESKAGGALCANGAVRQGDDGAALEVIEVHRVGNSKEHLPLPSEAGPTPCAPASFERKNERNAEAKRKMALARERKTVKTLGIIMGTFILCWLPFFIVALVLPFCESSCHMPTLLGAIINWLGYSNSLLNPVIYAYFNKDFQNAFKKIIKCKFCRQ

[8] = biological target: 5-hydroxytryptamine receptor 6 (Homo sapiens) (UniProt P50406); experiment: Binding affinity towards human 5-hydroxytryptamine 6 receptor
Sequence of 5-hydroxytryptamine receptor 6 (Homo sapiens) (P50406 whole entry): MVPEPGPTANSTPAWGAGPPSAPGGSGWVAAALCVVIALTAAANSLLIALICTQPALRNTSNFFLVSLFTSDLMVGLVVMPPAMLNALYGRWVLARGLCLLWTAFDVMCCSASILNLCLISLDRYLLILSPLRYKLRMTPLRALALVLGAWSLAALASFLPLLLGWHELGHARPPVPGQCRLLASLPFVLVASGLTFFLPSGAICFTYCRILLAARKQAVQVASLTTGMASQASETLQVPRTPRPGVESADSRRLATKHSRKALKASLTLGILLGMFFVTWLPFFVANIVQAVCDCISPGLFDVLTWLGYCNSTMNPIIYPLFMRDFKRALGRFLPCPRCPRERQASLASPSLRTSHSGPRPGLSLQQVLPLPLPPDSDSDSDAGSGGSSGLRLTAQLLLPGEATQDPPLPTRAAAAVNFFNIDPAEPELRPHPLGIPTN

[9] = biological target: 5-hydroxytryptamine receptor 7 (Homo sapiens) (UniProt P34969); experiment: Binding affinity towards 5-hydroxytryptamine 7 receptor
Sequence of 5-hydroxytryptamine receptor 7 (Homo sapiens) (P34969 whole entry): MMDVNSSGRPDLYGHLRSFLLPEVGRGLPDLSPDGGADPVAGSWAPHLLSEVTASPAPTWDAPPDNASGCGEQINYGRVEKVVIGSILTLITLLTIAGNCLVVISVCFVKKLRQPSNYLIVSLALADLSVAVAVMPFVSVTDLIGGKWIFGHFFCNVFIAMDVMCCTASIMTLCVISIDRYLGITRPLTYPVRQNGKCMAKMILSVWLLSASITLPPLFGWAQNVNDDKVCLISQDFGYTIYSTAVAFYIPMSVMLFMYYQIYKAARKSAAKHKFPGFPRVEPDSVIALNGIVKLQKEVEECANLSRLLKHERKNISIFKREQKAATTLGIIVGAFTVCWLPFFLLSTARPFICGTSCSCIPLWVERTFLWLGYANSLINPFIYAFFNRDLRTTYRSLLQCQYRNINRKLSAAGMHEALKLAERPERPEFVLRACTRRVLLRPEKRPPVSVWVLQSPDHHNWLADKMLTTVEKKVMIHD

[10] = biological target: 5-hydroxytryptamine receptor 5A (Homo sapiens) (UniProt P47898); experiment: Binding affinity towards 5-HT5a receptor
Sequence of 5-hydroxytryptamine receptor 5A (Homo sapiens) (P47898 whole entry): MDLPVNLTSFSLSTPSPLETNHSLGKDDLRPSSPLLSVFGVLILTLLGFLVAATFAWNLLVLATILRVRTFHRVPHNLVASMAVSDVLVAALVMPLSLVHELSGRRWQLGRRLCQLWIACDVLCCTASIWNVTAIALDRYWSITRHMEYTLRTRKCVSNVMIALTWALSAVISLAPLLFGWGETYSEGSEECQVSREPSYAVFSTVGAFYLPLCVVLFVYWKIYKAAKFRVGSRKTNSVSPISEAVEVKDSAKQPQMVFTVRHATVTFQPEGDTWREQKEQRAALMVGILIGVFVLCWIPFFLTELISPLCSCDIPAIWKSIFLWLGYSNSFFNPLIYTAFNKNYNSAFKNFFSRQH

[11] = biological target: 5-hydroxytryptamine receptor 2A (Homo sapiens) (UniProt P28223); experiment: Binding affinity towards 5-hydroxytryptamine 2A receptor
Sequence of 5-hydroxytryptamine receptor 2A (Homo sapiens) (P28223 whole entry): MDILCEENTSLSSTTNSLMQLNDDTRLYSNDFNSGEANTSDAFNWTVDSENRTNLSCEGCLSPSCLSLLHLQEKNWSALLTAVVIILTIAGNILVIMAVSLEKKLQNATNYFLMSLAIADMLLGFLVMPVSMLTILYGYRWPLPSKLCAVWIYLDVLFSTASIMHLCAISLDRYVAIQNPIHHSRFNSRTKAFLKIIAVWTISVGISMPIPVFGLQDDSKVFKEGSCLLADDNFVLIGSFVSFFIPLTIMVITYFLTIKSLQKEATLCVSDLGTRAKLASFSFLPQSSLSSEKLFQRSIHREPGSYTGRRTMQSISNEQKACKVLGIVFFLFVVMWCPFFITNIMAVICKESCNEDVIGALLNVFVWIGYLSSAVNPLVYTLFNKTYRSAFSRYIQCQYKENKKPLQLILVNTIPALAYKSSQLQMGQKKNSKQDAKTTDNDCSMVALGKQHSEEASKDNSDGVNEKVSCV

[12] = biological target: T6, 5-hydroxytryptamine receptor 2C (Homo sapiens) (UniProt P28335); experiment: Binding affinity towards 5-hydroxytryptamine 2C receptor
T6 sequence (whole entry): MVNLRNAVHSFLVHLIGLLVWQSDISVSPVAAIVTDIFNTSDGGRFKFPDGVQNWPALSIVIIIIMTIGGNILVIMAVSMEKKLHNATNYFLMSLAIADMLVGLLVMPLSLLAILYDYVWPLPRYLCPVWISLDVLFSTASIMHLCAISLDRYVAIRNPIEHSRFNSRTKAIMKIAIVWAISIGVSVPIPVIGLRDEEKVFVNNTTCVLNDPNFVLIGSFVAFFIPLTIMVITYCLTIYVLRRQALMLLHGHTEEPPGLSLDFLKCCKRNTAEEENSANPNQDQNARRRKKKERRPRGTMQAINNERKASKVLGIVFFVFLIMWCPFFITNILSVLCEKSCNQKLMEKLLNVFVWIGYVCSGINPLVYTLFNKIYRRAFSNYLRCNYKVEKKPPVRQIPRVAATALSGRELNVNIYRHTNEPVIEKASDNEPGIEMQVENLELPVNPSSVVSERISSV

[13] = biological target: T7, Gonadotropin-releasing hormone receptor (Homo sapiens) (UniProt P30968); experiment: Binding affinity towards GnRH receptor
T7 sequence (whole entry): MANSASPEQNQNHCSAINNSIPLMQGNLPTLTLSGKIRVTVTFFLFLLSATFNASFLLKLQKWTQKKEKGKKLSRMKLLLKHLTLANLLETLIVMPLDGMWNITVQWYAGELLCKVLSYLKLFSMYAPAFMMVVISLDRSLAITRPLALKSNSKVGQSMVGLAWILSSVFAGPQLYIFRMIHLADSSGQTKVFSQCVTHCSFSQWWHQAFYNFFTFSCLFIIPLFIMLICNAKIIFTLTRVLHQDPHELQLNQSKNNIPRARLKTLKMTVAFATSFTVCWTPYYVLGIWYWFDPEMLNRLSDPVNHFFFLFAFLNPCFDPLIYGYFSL

[14] = biological target: C-C chemokine receptor type 2 (Homo sapiens) (UniProt P41597); experiment: Binding affinity towards CCR2 receptor
Sequence of C-C chemokine receptor type 2 (Homo sapiens) (P41597 whole entry, looked up): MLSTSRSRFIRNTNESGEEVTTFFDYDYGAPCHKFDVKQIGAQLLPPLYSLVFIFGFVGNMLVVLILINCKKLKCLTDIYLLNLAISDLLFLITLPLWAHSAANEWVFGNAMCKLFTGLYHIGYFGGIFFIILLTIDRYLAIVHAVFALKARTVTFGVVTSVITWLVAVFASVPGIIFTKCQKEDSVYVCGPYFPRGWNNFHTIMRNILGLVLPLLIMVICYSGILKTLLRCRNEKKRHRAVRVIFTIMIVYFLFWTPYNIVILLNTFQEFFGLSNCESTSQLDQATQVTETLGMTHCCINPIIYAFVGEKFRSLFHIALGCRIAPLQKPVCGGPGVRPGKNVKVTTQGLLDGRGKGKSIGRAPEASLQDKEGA

[15] = biological target: T8, C-C chemokine receptor type 3 (Homo sapiens) (UniProt P51677); experiment: Binding affinity towards CCR3 receptor
T8 sequence (whole entry): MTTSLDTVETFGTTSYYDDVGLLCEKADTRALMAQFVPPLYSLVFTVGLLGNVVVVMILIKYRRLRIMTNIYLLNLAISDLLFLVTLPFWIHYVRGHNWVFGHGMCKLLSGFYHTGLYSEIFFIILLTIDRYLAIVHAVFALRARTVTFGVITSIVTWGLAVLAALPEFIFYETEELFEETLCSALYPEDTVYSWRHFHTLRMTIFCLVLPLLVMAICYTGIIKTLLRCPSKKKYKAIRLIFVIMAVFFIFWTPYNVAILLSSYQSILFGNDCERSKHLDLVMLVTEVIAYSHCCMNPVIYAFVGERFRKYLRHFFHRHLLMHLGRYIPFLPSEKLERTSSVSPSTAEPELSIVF

[16] = biological target: T9, C-X-C chemokine receptor type 3 (Homo sapiens) (UniProt P49682); experiment: Binding affinity towards CXCR3 receptor
T9 sequence (whole entry): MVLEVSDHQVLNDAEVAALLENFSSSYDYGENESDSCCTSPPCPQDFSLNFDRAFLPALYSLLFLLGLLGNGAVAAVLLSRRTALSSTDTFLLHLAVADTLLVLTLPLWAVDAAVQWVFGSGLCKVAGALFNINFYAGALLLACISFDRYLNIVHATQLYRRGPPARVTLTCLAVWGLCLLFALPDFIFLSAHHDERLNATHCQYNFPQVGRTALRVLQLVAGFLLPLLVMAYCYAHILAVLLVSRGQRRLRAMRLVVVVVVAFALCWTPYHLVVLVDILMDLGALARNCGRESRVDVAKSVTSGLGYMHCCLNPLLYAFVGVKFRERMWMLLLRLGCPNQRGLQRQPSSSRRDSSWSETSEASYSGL

[17] = biological target: C-X-C chemokine receptor type 4 (Homo sapiens) (UniProt P61073); experiment: Binding affinity towards CXCR4 receptor
Sequence of C-X-C chemokine receptor type 4 (Homo sapiens) (P61073 whole entry): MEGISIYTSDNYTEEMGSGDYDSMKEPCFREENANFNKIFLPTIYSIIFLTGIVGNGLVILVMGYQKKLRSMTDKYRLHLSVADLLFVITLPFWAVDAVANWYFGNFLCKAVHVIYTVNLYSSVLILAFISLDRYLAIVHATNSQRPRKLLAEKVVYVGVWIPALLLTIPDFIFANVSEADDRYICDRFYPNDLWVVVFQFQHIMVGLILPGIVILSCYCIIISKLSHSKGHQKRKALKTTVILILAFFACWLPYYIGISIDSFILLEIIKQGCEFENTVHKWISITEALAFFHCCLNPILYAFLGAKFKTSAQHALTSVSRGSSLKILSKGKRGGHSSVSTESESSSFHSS

[18] = biological target: C-C chemokine receptor type 5 (Homo sapiens) (UniProt P51681); experiment: Binding affinity towards CCR5 receptor
Sequence of C-C chemokine receptor type 5 (Homo sapiens) (P51681 whole entry, looked up): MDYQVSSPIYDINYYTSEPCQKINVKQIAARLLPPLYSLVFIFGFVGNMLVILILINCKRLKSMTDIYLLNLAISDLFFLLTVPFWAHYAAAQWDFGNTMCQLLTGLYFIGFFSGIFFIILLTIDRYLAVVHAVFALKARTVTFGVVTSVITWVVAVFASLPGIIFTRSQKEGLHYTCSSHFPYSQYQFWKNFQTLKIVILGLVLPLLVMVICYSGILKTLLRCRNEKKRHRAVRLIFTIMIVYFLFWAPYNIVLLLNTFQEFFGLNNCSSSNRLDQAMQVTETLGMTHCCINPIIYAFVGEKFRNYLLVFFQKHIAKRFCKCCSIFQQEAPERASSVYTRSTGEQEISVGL

[19] = biological target: T10, C-C chemokine receptor type 1 (Homo sapiens) (UniProt P32246); experiment: Binding affinity towards CCR1 receptor
T10 sequence (whole entry): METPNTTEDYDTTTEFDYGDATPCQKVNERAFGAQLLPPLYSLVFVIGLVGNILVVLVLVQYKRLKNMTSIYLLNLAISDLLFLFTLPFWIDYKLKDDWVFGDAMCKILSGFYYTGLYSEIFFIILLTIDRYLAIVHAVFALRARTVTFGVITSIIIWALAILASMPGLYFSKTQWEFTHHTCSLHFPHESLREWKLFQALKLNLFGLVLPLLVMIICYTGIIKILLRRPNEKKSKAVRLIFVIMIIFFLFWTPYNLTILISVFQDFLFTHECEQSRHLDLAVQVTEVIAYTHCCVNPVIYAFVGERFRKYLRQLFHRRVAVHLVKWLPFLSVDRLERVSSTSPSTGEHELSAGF

SMILES: Cc1ccc2[nH]c(-c3ccc(Br)cc3)c(CCCCCNC3CCCCC3)c2c1
Activity [3]: 612 nM

SMILES: COc1ccccc1N1CCN(C(=O)CCc2c(-c3ccc(Br)cc3)[nH]c3ccc(C)cc23)CC1
Activity [4]: 0.8 nM
Activity [5]: > 10 µM
Activity [6]: > 10 µM

SMILES: Brc1ccc(-c2[nH]c3cccc(-c4ccccc4)c3c2CCCN2CCCC2)cc1
Activity [7]: > 1 µM
Activity [11]: 10 nM
Activity [8]: 635 nM
Activity [12]: 60 nM
Activity [9]: > 1000 nM
Activity [10]: > 1 µM

SMILES: CCOC(=O)C(C)(C)c1ccc2[nH]c(-c3cc(C)cc(C)c3)c(CCCN3CCC(O)(c4ccccc4)CC3)c2c1
Activity [13]: 52 nM

SMILES: Brc1ccc(-c2[nH]c3ccc4ccccc4c3c2CCCNC2CCC(c3ccccc3)C2)cc1 (stereo not drawn)
Activity [14]: > 10 µM
Activity [15]: 920 nM
Activity [16]: > 10 µM
Activity [17]: 1520 nM
Activity [18]: 1190 nM
Activity [19]: > 10 µM

Next, values leading:

Activity [1]: > 10 µM
Activity [2]: 0.8 nM
SMILES: CC(NCCCc1c(-c2cccc(Br)c2)[nH]c2ccccc12)c1ccc(O)cc1 (stereo not drawn)

Activity [7]: > 1 µM
Activity [8]: 0.7 nM
Activity [9]: 300 nM
Activity [10]: > 1 µM
SMILES: CN(C)CCCc1c(-c2cccc(Br)c2)[nH]c2ccccc12
